Where a name gives a salt, the structure may show the parent alone.
molecular target: T1, h-5-HT6 receptor (Homo sapiens, UniProt P50406); experiment: 5-HT6 receptor binding assay (displacement of [3H]-LSD); details: membranes of HEK293 cells expressing h-5-HT6 receptor, 1 nM [3H]-LSD; read-out: Ki (5HT6)
T1 construct: expressed in transfected cells
T1 sequence (P50406 whole entry): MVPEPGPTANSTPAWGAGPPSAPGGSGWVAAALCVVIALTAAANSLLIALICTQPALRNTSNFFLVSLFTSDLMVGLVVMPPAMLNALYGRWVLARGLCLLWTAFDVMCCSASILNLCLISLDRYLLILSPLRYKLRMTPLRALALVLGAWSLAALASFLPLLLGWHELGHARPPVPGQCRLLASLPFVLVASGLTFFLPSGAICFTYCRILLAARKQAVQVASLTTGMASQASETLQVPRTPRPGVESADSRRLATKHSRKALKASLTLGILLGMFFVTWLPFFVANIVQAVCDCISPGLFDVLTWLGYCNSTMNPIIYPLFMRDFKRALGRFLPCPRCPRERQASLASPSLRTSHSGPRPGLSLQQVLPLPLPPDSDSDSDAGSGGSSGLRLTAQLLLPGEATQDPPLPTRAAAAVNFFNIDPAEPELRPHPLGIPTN

Row | Ki | Structure (SMILES)
1 | < 10 nM | COc1ccc(S(=O)(=O)Nc2ccc(OC(F)F)cc2)cc1N1CCN(C)CC1 [Example 95, N-(4-Difluoromethoxy-phenyl)-4-methoxy-3-(4-methyl-piperazin-1-yl)-benzenesulfonamide hydrochloride]
2 | < 50 nM | Cc1ccc(S(=O)(=O)Nc2cccc(OC(F)F)c2)cc1N1CCCNCC1 [Example 96, 3-[1,4]Diazepan-1-yl-N-(3-difluoromethoxy-phenyl)-4-methyl-benzenesulfonamide hydrochloride]
3 | < 10 nM | Cc1ccc(S(=O)(=O)Nc2ccccc2OC(F)F)cc1N1CCCNCC1 [Example 97, 3-[1,4]Diazepan-1-yl-N-(2-difluoromethoxy-phenyl)-4-methyl-benzenesulfonamide hydrochloride]
4 | < 50 nM | Cc1ccc(NS(=O)(=O)c2ccc(C)c(N3CCCNCC3)c2)cc1OC(F)F [Example 98, 3-[1,4]Diazepan-1-yl-N-(3-difluoromethoxy-4-methyl-phenyl)-4-methyl-benzenesulfonamide hydrochloride]
5 | < 500 nM | Cc1ccc(NS(=O)(=O)c2ccc(C)c(N3CCCN(C)CC3)c2)cc1OC(F)F [Example 99, N-(3-Difluoromethoxy-4-methyl-phenyl)-4-methyl-3-(4-methyl-[1,4]diazepan-1-yl)-benzenesulfonamide hydrochloride]
6 | < 10 nM | Cc1ccc(S(=O)(=O)Nc2ccccc2OC(F)F)cc1N1CCCN(C)CC1 [Example 100, N-(2-Difluoromethoxy-phenyl)-4-methyl-3-(4-methyl-[1,4]diazepan-1-yl)-benzenesulfonamide hydrochloride]
7 | < 10 nM | Cc1ccc(S(=O)(=O)Nc2cccc(OC(F)F)c2)cc1N1CCCN(C)CC1 [Example 101, N-(3-Difluoromethoxy-phenyl)-4-methyl-3-(4-methyl-[1,4]diazepan-1-yl)-benzenesulfonamide hydrochloride]
8 | < 10 nM | CCOc1ccc(S(=O)(=O)Nc2ccc(C)cc2OC(F)F)cc1N1CCNCC1 [Example 106, N-(2-Difluoromethoxy-4-methylphenyl)-4-ethoxy-3-piperazin-1-yl benzenesulfonamide]

Source: patent US8343959B2, “N-phenyl-(piperazinyl or homopiperazinyl)-benzenesulfonamide or benzenesulfonyl-phenyl-(piperazine or homopiperazine) compounds suitable for treating disorders that respond to modulation of the serotonin 5-HT6 receptor” (Abbott GmbH & Co. KG, priority 2009, dated 2013)
